Laboratory results: patent US20250144067A1, “PERSONALIZED STARVATION THERAPY FOR CANCER” (Faeth Therapeutics, Inc., priority 2021, published 2025)
Where a name gives a salt, the structure may show the parent alone. Read-outs that look alike come from different tables or passages of the source.

Columns and labels:
[1] = tested on: NCI-H292 lung cancer cells; experiment: FDA drug screening, complete media vs cholesterol-free media with simvastatin (TABLE 2); format: cell-based, human
[2] = tested on: NCI-H292 lung cancer cells; experiment: FDA drug screening, complete media vs cholesterol-free media without statin (TABLE 1); format: cell-based, human
[3] = Complete minus Cholesterol-free, […]
[4] = NCI-H292 cells in cholesterol-free media without statin
[5] = NCI-H292 cells in complete media
[6] = NCI-H292 cells, FDA library drug in cholesterol-free media with simvastatin 0.04 μM
[7] = NCI-H292 cells, FDA library drug in complete media
[8] = complete media vs cholesterol-free media + simvastatin (0.04 μM), […]
[9] = NCI-H292 cells, cholesterol-free media without statin
[10] = NCI-H292 cells, cholesterol-free media with simvastatin 0.04 μM, cell growth value in FDA drug screen
[11] = NCI-H292 cells, complete media, cell growth value in FDA drug screen
[12] = complete media minus cholesterol-free media + simvastatin, >0 enhanced anti-cancer activity, about 0 neutral, <0 antagonist
[13] = Complete minus Cholesterol-free, >0 enhanced anti-cancer activity, about 0 neutral, <0 antagonist
[14] = NCI-H292 cells, drug in cholesterol-free media with simvastatin 0.04 μM
[15] = NCI-H292 cells, drug in complete media
[16] = complete media vs cholesterol-free media + simvastatin (0.04 μM), >0 enhanced anti-cancer activity, about 0 neutral, <0 antagonist
[17] = NCI-H292 cells, cholesterol-free media with simvastatin 0.04 μM, FDA drug library screen (TABLE 2)
[18] = NCI-H292 cells, complete media, FDA drug library screen (TABLE 2)
[19] = complete media minus cholesterol-free media + simvastatin (0.04 μM), >0 enhanced anti-cancer activity, about 0 neutral, <0 antagonist
[20] = Complete minus Cholesterol-free, greater than 0 enhanced anti-cancer activity, about 0 neutral, below 0 antagonists
[21] = NCI-H292 cells, cholesterol-free media without statin, FDA drug library screen
[22] = NCI-H292 cells, complete media, FDA drug library screen
[23] = complete vs cholesterol-free media, >0 enhanced anti-cancer activity, about 0 neutral, <0 antagonist
[24] = NCI-H292 cells, FDA drug library screen, cholesterol-free media with simvastatin 0.04 μM
[25] = NCI-H292 cells, FDA drug library screen, complete media

## C=C1CC[C@@H]2[C@](C)(COC(=O)CCC(=O)O)[C@H](OC(=O)CCC(=O)O)CC[C@@]2(C)[C@@H]1/C=C/C1=CCOC1=O [Dehydroandrographolide succinate]
[1]; NCI-H292 cells, cholesterol-free media with simvastatin 0.04 μM, […]
  Cholesterol-free media + simvastatin (0.04 μM): 0.8998
[1]; NCI-H292 cells, complete media, […]
  Complete Media: 1.004
[1]; complete media minus cholesterol-free media + simvastatin, […]
  Difference: 0.10
[2]; [3]
  Difference: −1.21
[2]; [4]
  Cholesterol-free: 2.195
[2]; [5]
  Complete: 0.9855

## C=C1CC[C@@H]2[C@](C)(CO)[C@H](O)CC[C@@]2(C)[C@@H]1/C=C/C1=CCOC1=O [Dehydroandrographolide]
[1]; [6]
  Cholesterol-free media + simvastatin (0.04 μM): 1.79
[1]; [7]
  Complete Media: 1.432
[1]; [8]
  Difference: −0.36
[2]; [3]
  Difference: −0.24
[2]; [9]
  Cholesterol-free: 0.9695
[2]; NCI-H292 cells, complete media
  Complete: 0.7339

## C[C@H](CCC(=O)O)[C@H]1CC[C@H]2[C@@H]3C(=O)C[C@@H]4CC(=O)CC[C@]4(C)[C@H]3CC(=O)[C@]12C [Dehydrocholic acid]
[1]; [10]
  Cholesterol-free media + simvastatin (0.04 μM): 0.8533
[1]; [11]
  Complete Media: 0.9003
[1]; [12]
  Difference: 0.05
[2]; [13]
  Difference: −0.25
[2]; [9]
  Cholesterol-free: 1.151
[2]; NCI-H292 cells, complete media
  Complete: 0.9012

## CNC[C@H](O)[C@@H](O)[C@H](O)[C@H](O)CO.Nc1nc(-n2cc(C(=O)O)c(=O)c3cc(F)c(N4CC(O)C4)c(Cl)c32)c(F)cc1F [Delafloxacin (meglumine)]
[1]; [14]
  Cholesterol-free media + simvastatin (0.04 μM): 1.156
[1]; [15]
  Complete Media: 0.9953
[1]; [16]
  Difference: −0.16
[2]; [9]
  Cholesterol-free: 1.432
[2]; NCI-H292 cells, complete media
  Complete: 1.009
[2]; complete vs cholesterol-free media, greater than 0 enhanced anti-cancer activity, about 0 neutral, below 0 antagonists
  Difference: −0.42

## C[C@]1(COc2ccc(N3CCC(Oc4ccc(OC(F)(F)F)cc4)CC3)cc2)Cn2cc([N+](=O)[O-])nc2O1 [Delamanid]
[1]; [17]
  Cholesterol-free media + simvastatin (0.04 μM): 1.352
[1]; [18]
  Complete Media: 1.345
[1]; [19]
  Difference: −0.01
[2]; [13]
  Difference: −0.22
[2]; [9]
  Cholesterol-free: 1.106
[2]; NCI-H292 cells, complete media
  Complete: 0.8827

## CCOC(=O)[C@H](CCc1ccccc1)N[C@@H](C)C(=O)N(CC(=O)O)C1Cc2ccccc2C1 [Delapril (hydrochloride)]
[1]; [10]
  Cholesterol-free media + simvastatin (0.04 μM): 0.7815
[1]; [11]
  Complete Media: 0.8772
[1]; [12]
  Difference: 0.10
[2]; [13]
  Difference: −0.30
[2]; [9]
  Cholesterol-free: 1.222
[2]; NCI-H292 cells, complete media
  Complete: 0.9182

## CN(CCCCCCCCCCN(C)C(=O)Oc1cccc([N+](C)(C)C)c1)C(=O)Oc1cccc([N+](C)(C)C)c1 [Demecarium Bromide]
[1]; [6]
  Cholesterol-free media + simvastatin (0.04 μM): 1.197
[1]; [7]
  Complete Media: 0.9059
[1]; [8]
  Difference: −0.29
[2]; [3]
  Difference: −0.29
[2]; [9]
  Cholesterol-free: 1.112
[2]; NCI-H292 cells, complete media
  Complete: 0.8186

## CN(C)[C@@H]1C(O)=C(C(N)=O)C(=O)[C@@]2(O)C(O)=C3C(=O)c4c(O)ccc(Cl)c4[C@@H](O)[C@H]3C[C@@H]12 [Demeclocycline (hydrochloride)]
[1]; [17]
  Cholesterol-free media + simvastatin (0.04 μM): 1.054
[1]; [18]
  Complete Media: 1.04
[1]; [19]
  Difference: −0.01
[2]; [20]
  Difference: −0.59
[2]; [4]
  Cholesterol-free: 1.527
[2]; [5]
  Complete: 0.9395

## C[C@H](CCC(=O)O)[C@H]1CC[C@H]2[C@@H]3CC[C@@H]4C[C@H](O)CC[C@]4(C)[C@H]3C[C@H](O)[C@]12C [Deoxycholic acid sodium salt]
[1]; [14]
  Cholesterol-free media + simvastatin (0.04 μM): 0.8739
[1]; [15]
  Complete Media: 0.7063
[1]; [16]
  Difference: −0.17
[2]; [21]
  Cholesterol-free: 0.8045
[2]; [22]
  Complete: 0.9543
[2]; [23]
  Difference: 0.15

## C[C@H](CCC(=O)O)[C@H]1CC[C@H]2[C@@H]3CC[C@@H]4C[C@H](O)CC[C@]4(C)[C@H]3C[C@H](O)[C@]12C [Deoxycholic acid]
[1]; [6]
  Cholesterol-free media + simvastatin (0.04 μM): 1.379
[1]; [7]
  Complete Media: 0.931
[1]; [16]
  Difference: −0.45
[2]; [20]
  Difference: −0.65
[2]; [4]
  Cholesterol-free: 1.683
[2]; [5]
  Complete: 1.028

## CC(=O)OCC(=O)[C@H]1CC[C@H]2[C@@H]3CCC4=CC(=O)CC[C@]4(C)[C@H]3CC[C@]12C [Deoxycorticosterone acetate]
[1]; [24]
  Cholesterol-free media + simvastatin (0.04 μM): 0.9825
[1]; [25]
  Complete Media: 0.8887
[1]; [16]
  Difference: −0.09
[2]; [21]
  Cholesterol-free: 0.7412
[2]; [22]
  Complete: 1.214
[2]; [23]
  Difference: 0.47

## CCC(=O)O[C@]1(C(C)=O)CC[C@H]2[C@@H]3CCC4=CC(=O)C=C[C@]4(C)[C@H]3[C@@H](O)C[C@@]21C [Deprodone propionate]
[1]; [10]
  Cholesterol-free media + simvastatin (0.04 μM): 0.6417
[1]; [11]
  Complete Media: 0.6907
[1]; [12]
  Difference: 0.05
[2]; [21]
  Cholesterol-free: 0.6965
[2]; [22]
  Complete: 0.786
[2]; [23]
  Difference: 0.09

## COc1ccc(-c2cc(C(F)F)nn2-c2ccc(S(N)(=O)=O)cc2)cc1F [Deracoxib]
[1]; [24]
  Cholesterol-free media + simvastatin (0.04 μM): 1.651
[1]; [25]
  Complete Media: 1.821
[1]; [12]
  Difference: 0.17
[2]; [20]
  Difference: −0.50
[2]; [4]
  Cholesterol-free: 1.682
[2]; [5]
  Complete: 1.181

## COC(=O)[C@H]1[C@H]2C[C@@H]3c4[nH]c5ccccc5c4CCN3C[C@H]2C[C@@H](OC(=O)c2cc(OC)c(OC)c(OC)c2)[C@@H]1OC [Deserpidine]
[1]; [14]
  Cholesterol-free media + simvastatin (0.04 μM): 1.05
[1]; [15]
  Complete Media: 0.8141
[1]; [16]
  Difference: −0.24
[2]; [13]
  Difference: −0.30
[2]; [9]
  Cholesterol-free: 0.9648
[2]; NCI-H292 cells, complete media
  Complete: 0.6619

## CC(C)N(CC[C@H](c1ccccc1)c1cc(CO)ccc1O)C(C)C [Desfesoterodine]
[1]; [14]
  Cholesterol-free media + simvastatin (0.04 μM): 1.01
[1]; [15]
  Complete Media: 0.8395
[1]; [8]
  Difference: −0.17
[2]; [21]
  Cholesterol-free: 0.7501
[2]; [22]
  Complete: 1.3
[2]; complete vs cholesterol-free media, […]
  Difference: 0.55

## CNCCCN1c2ccccc2CCc2ccccc21 [Desipramine hydrochloride]
[1]; [6]
  Cholesterol-free media + simvastatin (0.04 μM): 2.126
[1]; [7]
  Complete Media: 1.494
[1]; [16]
  Difference: −0.63
[2]; [13]
  Difference: −0.04
[2]; [21]
  Cholesterol-free: 1.05
[2]; [22]
  Complete: 1.006

## Clc1ccc2c(c1)CCc1cccnc1C2=C1CCNCC1 [Desloratadine]
[1]
  Cholesterol-free media + simvastatin (0.04 μM): 0.922
  Complete Media: 0.6254
  Difference: −0.30
[2]
  Cholesterol-free: 1.114
  Complete: 0.8419
  Difference: −0.27

## C#C[C@]1(O)CC[C@H]2[C@@H]3CCC4=CCCC[C@@H]4[C@H]3C(=C)C[C@@]21CC [Desogestrel]
[1]; [7]
  Complete Media: 1.022
[1]; [16]
  Difference: −0.60
[2]; [13]
  Difference: 0.06
[2]; [21]
  Cholesterol-free: 0.9017
[2]; [22]
  Complete: 0.9645

## CC1(C)O[C@@H]2C[C@H]3[C@@H]4CCC5=CC(=O)C=C[C@]5(C)[C@H]4[C@@H](O)C[C@]3(C)[C@]2(C(=O)CO)O1 [Desonide]
[1]; [10]
  Cholesterol-free media + simvastatin (0.04 μM): 0.6303
[1]; [11]
  Complete Media: 0.7658
[1]; [12]
  Difference: 0.14
[2]; [13]
  Difference: −0.07
[2]; [21]
  Cholesterol-free: 0.6524
[2]; [22]
  Complete: 0.5811

## C[C@@H]1C[C@H]2[C@@H]3CCC4=CC(=O)C=C[C@]4(C)[C@@]3(F)[C@@H](O)C[C@]2(C)[C@H]1C(=O)CO [Desoximetasone]
[1]; [17]
  Cholesterol-free media + simvastatin (0.04 μM): 0.8194
[1]; [18]
  Complete Media: 0.8184
[1]; [19]
  Difference: 0.00
[2]; [13]
  Difference: −0.06
[2]; [21]
  Cholesterol-free: 0.8359
[2]; [22]
  Complete: 0.7716

## CC(C)(C)C(=O)OCC(=O)[C@H]1CC[C@H]2[C@@H]3CCC4=CC(=O)CC[C@]4(C)[C@H]3CC[C@]12C [Desoxycorticosterone pivalate]
[1]
  Cholesterol-free media + simvastatin (0.04 μM): 1.728
  Complete Media: 1.762
  Difference: 0.03
[2]
  Cholesterol-free: 1.574
  Complete: 1.04
  Difference: −0.53
